Data reported in publication PMC7217186 (The Febs Journal, 2019).

Target: T1, TKS (tetraketide synthase) (Cannabis sativa, UniProt B1Q2B6)
T1 construct: gene OLS; codon-optimised gene in pETM11, N-terminal TEV-cleavable His6 tag, cut from wild type after purification; E. coli BL21(DE3); dimer (two dimers in asymmetric unit); Cys157 oxidised to sulfinic acid in crystal
Assay: LC-MS of products (olivetol, PDAL, HTAL)
Assay type: biochemical
Conditions: 10 μM hexanoyl-CoA, 30 μM malonyl-CoA, 10 μM enzyme, 25 mM Tris pH 8, 150 mM NaCl, 5% glycerol, 25 °C, overnight

T1 sequence (B1Q2B6 2-385): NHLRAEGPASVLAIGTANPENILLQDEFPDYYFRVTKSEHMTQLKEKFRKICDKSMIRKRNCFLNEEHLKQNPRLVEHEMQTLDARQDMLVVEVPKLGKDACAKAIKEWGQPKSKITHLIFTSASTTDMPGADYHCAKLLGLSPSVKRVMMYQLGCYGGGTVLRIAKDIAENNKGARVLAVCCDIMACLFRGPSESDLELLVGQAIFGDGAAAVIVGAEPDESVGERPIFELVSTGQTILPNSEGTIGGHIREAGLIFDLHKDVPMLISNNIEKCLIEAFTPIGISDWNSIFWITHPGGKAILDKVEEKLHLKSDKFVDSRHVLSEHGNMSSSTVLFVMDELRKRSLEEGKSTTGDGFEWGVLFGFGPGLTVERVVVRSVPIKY

Structure (SMILES) | LC-MS of products (olivetol, PDAL, HTAL)
CC(C)(COP(=O)(O)OP(=O)(O)OC[C@H]1O[C@@H](n2cnc3c(N)ncnc32)[C@H](O)[C@@H]1OP(=O)(O)O)[C@@H](O)C(=O)NCCC(=O)NCCSC(=O)CC(=O)O [malonyl-CoA] | A major product generated by TKS with malonyl‐CoA and hexanoyl‐CoA was identified as olivetol
CCCCCC(=O)SCCNC(=O)CCNC(=O)[C@H](O)C(C)(C)COP(=O)(O)OP(=O)(O)OC[C@H]1O[C@@H](n2cnc3c(N)ncnc32)[C@H](O)[C@@H]1OP(=O)(O)O [hexanoyl-CoA] | A major product generated by TKS with malonyl‐CoA and hexanoyl‐CoA was identified as olivetol
